Source: patent US11535851B2, “Reagents for treatment of hepatitis B virus (HBV) infection and use thereof” (priority 2016, dated 2022)

How the values were obtained:
Type in all cases: in vivo
[1] = tested on: HBV genotype C; assay: Serum HBV DNA in HBV-infected PXB chimeric mouse model; conditions: treatment arm of daily ETV only; FIG. 7
Method: (§1) The in vivo effect of the anti-HBV shmiR or shRNA-expressing AAV particles (as illustrated in FIG. 5) was determined in a PXB chimeric mouse model infected de novo with HBV inoculum. Inhibition of various HBV parameters was assessed: (i) expression of HBV viral transcripts, (ii) extracellular HbsAg, HBcAg and HBeAg, (iii) extracellular and intracellular HBV DNA, and (iv) formation of cccDNA.
(§2) Chimeric PXB mice (PXB-mice®) were obtained from PhoenixBio. All mice were housed individually at 23±5° C. and a humidity of 55±25% humidity, exposed to 12 hours-light/dark cycles and fed and watered ad libitum throughout the experiment. […] To determine baseline HBV infection, blood was taken from mice at days −28, −21, −14 and −7 (i.e., 0, 7, 14 and 21 days post inoculation, respectively), from which human albumin (h-Alb) concentration and serum concentrations of HBV DNA, HBsAg and HBeAg were determined. These permit detection of liver damage in test animals—no adverse reactions were detected.
Remaining whole blood was centrifuged to separate serum for HBV DNA quantification, HbsAg, HBcAg and HBeAg analysis. […] Synthetic HBV DNA was used to determine the concentration of the HBV DNA standard which was then used in quantification of the serum HBV DNA level. […]

[2] = tested on: HBV genotype C; assay: Serum HBsAg in HBV-infected PXB chimeric mouse model; conditions: PXB mice, 91 day study; FIG. 8
Method: as §1, §2
(§3) Serum HBsAg and HBeAg concentrations were determined using ChemiLuminescence ImmunoAssay (CLIA) e.g., as developed by Abbott ([…]® SYSTEM). […]
(§4) Following administration of the treatment (day 0), animals were then incubated for a further 91 days. […] HBeAg levels were measured every other week through Day 70 and then weekly thereafter until the conclusion of the 91 day experiment.

[3] = tested on: HBV genotype C; assay: Serum HBeAg in HBV-infected PXB chimeric mouse model
Method: as §1, §2, §3, §4

[4] = tested on: HBV viral transcripts; assay: Liver HBV RNA levels by RT-QPCR in PXB chimeric mouse model; conditions: FIG. 11
Description: After the completion of blood sampling on Day 91, all the surviving animals were kept under isoflurane anesthesia and sacrificed by cardiac puncture and exsanguination. Once sacrificed, whole livers were harvested from mice and weighed. A slice of liver of 3 to 5 mm in thickness was obtained from left lateral lobe and cut into cubes approximately 1 to 2 mm on a side. These liver cubes were transferred into a labelled tube and immersed in RNAlater® solution (Ambion, Thermo Fisher Scientific Inc., Waltham, Mass., USA) as quickly as possible. The liver samples were incubated in ≥5 volumes of RNAlater® overnight at 4° C. to allow the solution to penetrate the tissue. After the incubation, the RNAlater® solution was removed and the liver pieces were stored at −80° C. for subsequent quantification of the various hepatic HBV DNA and RNAs as well as expression levels of recombinant AAV derived shRNA or shmiR RNAs.
Using primer/probe sets that are located near each of the RNAi-induced cleavage sites, the levels of HBV RNA was assessed by RT-QPCR (FIG. 11).

[5] = tested on: HBV genotype C; assay: Intracellular (liver) HBV DNA by quantitative PCR in PXB chimeric mouse model; conditions: entecavir or pegylated interferon alone; FIG. 12, left panel
[6] = tested on: HBV cccDNA; assay: Liver HBV cccDNA by real-time PCR in PXB chimeric mouse model; conditions: ETV; FIG. 12, right panel
Method: HBV-infected mice treated with saline served as the negative controls. […] For the anti-HBV ddRNAi treatment groups, ssAAV8-HBV-shRNAx3-v1, scAAV8-HBV-shRNAx3-v1 or ssAAV8-HBV-shmiRx3-v1 was administered once at a dose of 2×10E+13 vg/kg by a low pressure tail vein injection at Day 0. Co-treated animals started daily ETV at Day 1 or were dosed the first time with PEG-IFN on Day 4
After the completion of blood sampling on Day 91, all the surviving animals were kept under isoflurane anesthesia and sacrificed by cardiac puncture and exsanguination. Once sacrificed, whole livers were harvested from mice and weighed. A slice of liver of 3 to 5 mm in thickness was obtained from left lateral lobe and cut into cubes approximately 1 to 2 mm on a side. […] After the incubation, the RNAlater® solution was removed and the liver pieces were stored at −80° C. for subsequent quantification of the various hepatic HBV DNA and RNAs as well as expression levels of recombinant AAV derived shRNA or shmiR RNAs.
To determine the level of hepatic HBV DNA following treatment, HBV DNA was extracted from frozen RNAlater®-preserved liver tissue using the DNeasy® Blood & Tissue Kits (Qiagen K. K., Tokyo, Japan). The DNA was dissolved in 200 μL nuclease-free water, after which the concentration of the DNA solution was determined using BioPhotometer 6131 (Eppendorf Co., Ltd., Tokyo, Japan). […]

C=C1[C@H](CO)[C@@H](O)C[C@@H]1n1cnc2c(=O)[nH]c(N)nc21 [entecavir]
drop in serum HBV DNA levels [1]: 2.63 log
drop in HBsAg levels [2]: 0.46 log
drop in HBeAg levels ([3]; PXB mice, 91 day study, FIG. 9): 0.37 log
drop in HBeAg levels ([3]; entecavir only): 0.37 log
reduction of HBV RNA levels / HBV transcripts ([4]; monotherapy, through 13 weeks of treatment, RT-QPCR): ~50%
HBV RNA levels (liver) ([4]; transcripts corresponding to shmiR-6, shmiR-15 and shmiR-12): only modestly reduced
drop in intracellular DNA levels [5]: 2 logs
reduction of cccDNA [6]: slightly more than a one log reduction
